# Tests used:
# [1] = tested on: ryegrass, Italian (Italian ryegrass, Lolium multiflorum); assay: Test A postemergence, ryegrass, Italian; assay type: in vivo; details: Lolium multiflorum, post-emergence, 240 h, 0 to 100 scale (0 no effect, 100 complete control), read-out: Plant response rating, Ryegrass, Italian; for pest or weed control at 31 g/ha: 31 g ai/ha; for pest or weed control at 125 g/ha: 125 g ai/ha
# [2] = tested on: ragweed (common ragweed, Ambrosia elatior); assay: Test A postemergence, ragweed; assay type: in vivo; details: Ambrosia artemisiifolia, post-emergence, 240 h, 0 to 100 scale (0 no effect, 100 complete control), read-out: Plant response rating, Ragweed; for pest or weed control at 31 g/ha: 31 g ai/ha; for pest or weed control at 125 g/ha: 125 g ai/ha
# [3] = tested on: rice (Oryza sativa); assay: Test B flooded paddy test, rice; details: Oryza sativa, read-out: Plant response rating, Rice (0 to 100 scale, 0 is no effect, 100 is complete control)
# [4] = tested on: corn (Zea mays); assay: Test A postemergence, corn; assay type: in vivo; details: Zea mays, post-emergence, 240 h, 0 to 100 scale (0 no effect, 100 complete control); for Corn plant response rating (crop injury, 0 = no effect, 100 = complete kill) at 31 g/ha: 31 g ai/ha; for Corn plant response rating (crop injury, 0 = no effect, 100 = complete kill) at 125 g/ha: 125 g ai/ha
# [5] = tested on: wheat (Triticum aestivum); assay: Test A postemergence, wheat; assay type: in vivo; details: Triticum aestivum, post-emergence, 240 h, 0 to 100 scale (0 no effect, 100 complete control), read-out: Plant response rating, Wheat; for plant injury at 31 g/ha: 31 g ai/ha; for plant injury at 125 g/ha: 125 g ai/ha
# [6] = tested on: pigweed (Amaranthus retroflexus); assay: Test A preemergence, pigweed; assay type: in vivo; details: Amaranthus retroflexus, pre-emergence, 240 h, 0 to 100 scale (0 no effect, 100 complete control), read-out: Plant response rating, Pigweed; for pest or weed control at 31 g/ha: 31 g ai/ha; for pest or weed control at 125 g/ha: 125 g ai/ha
# [7] = tested on: kochia (Kochia scoparia); assay: Test A preemergence, kochia; assay type: in vivo; details: Bassia scoparia, pre-emergence, 240 h, 0 to 100 scale (0 no effect, 100 complete control), read-out: Plant response rating, Kochia; for pest or weed control at 31 g/ha: 31 g ai/ha; for pest or weed control at 125 g/ha: 125 g ai/ha
# [8] = tested on: pigweed (Amaranthus retroflexus); assay: Test A postemergence, pigweed; assay type: in vivo; details: Amaranthus retroflexus, post-emergence, 240 h, 0 to 100 scale (0 no effect, 100 complete control), read-out: Plant response rating, Pigweed; for pest or weed control at 31 g/ha: 31 g ai/ha; for pest or weed control at 125 g/ha: 125 g ai/ha
# [9] = tested on: blackgrass (Alopecurus myosuroides); assay: Test A postemergence, blackgrass; assay type: in vivo; details: Alopecurus myosuroides, post-emergence, 240 h, 0 to 100 scale (0 no effect, 100 complete control), read-out: Plant response rating, Blackgrass; for pest or weed control at 31 g/ha: 31 g ai/ha; for pest or weed control at 125 g/ha: 125 g ai/ha
# [10] = tested on: galium (catchweed bedstraw, Galium aparine); assay: Test A postemergence, galium; assay type: in vivo; details: Galium, post-emergence, 240 h, 0 to 100 scale (0 no effect, 100 complete control), read-out: Plant response rating, Galium; for pest or weed control at 31 g/ha: 31 g ai/ha; for pest or weed control at 125 g/ha: 125 g ai/ha
# [11] = tested on: kochia (Kochia scoparia); assay: Test A postemergence, kochia; assay type: in vivo; details: Bassia scoparia, post-emergence, 240 h, 0 to 100 scale (0 no effect, 100 complete control), read-out: Plant response rating, Kochia; for pest or weed control at 31 g/ha: 31 g ai/ha; for pest or weed control at 125 g/ha: 125 g ai/ha
# [12] = tested on: ryegrass, Italian (Italian ryegrass, Lolium multiflorum); assay: Test A preemergence, ryegrass, Italian; assay type: in vivo; details: Lolium multiflorum, pre-emergence, 240 h, 0 to 100 scale (0 no effect, 100 complete control), read-out: Plant response rating, Ryegrass, Italian; for pest or weed control at 31 g/ha: 31 g ai/ha; for pest or weed control at 125 g/ha: 125 g ai/ha
# [13] = tested on: barnyardgrass (Echinochloa crus-galli); assay: Test B flooded paddy test, barnyardgrass; details: Echinochloa crus-galli, read-out: Plant response rating, Barnyardgrass (0 to 100 scale, 0 is no effect, 100 is complete control)
# [14] = tested on: barnyardgrass (Echinochloa crus-galli); assay: Test A postemergence, barnyardgrass; assay type: in vivo; details: Echinochloa crus-galli, post-emergence, 240 h, 0 to 100 scale (0 no effect, 100 complete control), read-out: Plant response rating, Barnyardgrass; for pest or weed control at 31 g/ha: 31 g ai/ha; for pest or weed control at 125 g/ha: 125 g ai/ha
# [15] = tested on: foxtail, green (green foxtail, Setaria viridis); assay: Test A postemergence, foxtail, green; assay type: in vivo; details: Setaria, post-emergence, 240 h, 0 to 100 scale (0 no effect, 100 complete control), read-out: Plant response rating, Foxtail, Green; for pest or weed control at 31 g/ha: 31 g ai/ha; for pest or weed control at 125 g/ha: 125 g ai/ha
# [16] = tested on: barnyardgrass (Echinochloa crus-galli); assay: Test A preemergence, barnyardgrass; assay type: in vivo; details: Echinochloa crus-galli, pre-emergence, 240 h, 0 to 100 scale (0 no effect, 100 complete control), read-out: Plant response rating, Barnyardgrass; for pest or weed control at 31 g/ha: 31 g ai/ha; for pest or weed control at 125 g/ha: 125 g ai/ha
# [17] = tested on: ducksalad (Heteranthera limosa); assay: Test B flooded paddy test, ducksalad; details: Heteranthera limosa, read-out: Plant response rating, Ducksalad (0 to 100 scale, 0 is no effect, 100 is complete control)
# [18] = tested on: ragweed (common ragweed, Ambrosia elatior); assay: Test A preemergence, ragweed; assay type: in vivo; details: Ambrosia artemisiifolia, pre-emergence, 240 h, 0 to 100 scale (0 no effect, 100 complete control), read-out: Plant response rating, Ragweed; for pest or weed control at 31 g/ha: 31 g ai/ha; for pest or weed control at 125 g/ha: 125 g ai/ha
Compound,pest or weed control at 31 g/ha [1],pest or weed control at 125 g/ha [1],pest or weed control at 31 g/ha [2],pest or weed control at 125 g/ha [2],plant injury at 250 g/ha [3],"Corn plant response rating (crop injury, 0 = no effect, 100 = complete kill) at 31 g/ha [4]","Corn plant response rating (crop injury, 0 = no effect, 100 = complete kill) at 125 g/ha [4]",plant injury at 31 g/ha [5],plant injury at 125 g/ha [5],pest or weed control at 31 g/ha [6],pest or weed control at 125 g/ha [6],pest or weed control at 31 g/ha [7],pest or weed control at 125 g/ha [7],pest or weed control at 31 g/ha [8],pest or weed control at 125 g/ha [8],pest or weed control at 31 g/ha [9],pest or weed control at 125 g/ha [9],pest or weed control at 31 g/ha [10],pest or weed control at 125 g/ha [10],pest or weed control at 31 g/ha [11],also measured
"O=C1OC(CCC(F)(F)F)c2c(Oc3ncc(Cl)cn3)cccc21 (stereo not drawn) [Compound 4, 4-[(5-Chloro-2-pyrimidinyl)oxy]-3-(3,3,3-trifluoropropyl)-1(3H)-isobenzofuranone]",20%,90%,0%,80%,45%,30%,80%,20%,80%,100%,100%,90%,100%,90%,100%,40%,90%,100%,100%,90%,pest or weed control at 125 g/ha [11]: 100%; pest or weed control at 31 g/ha [12]: 20%; pest or weed control at 125 g/ha [12]: 100%; pest or weed control at 250 g/ha [13]: 35%; pest or weed control at 31 g/ha [14]: 30%; pest or weed control at 125 g/ha [14]: 90%; pest or weed control at 31 g/ha [15]: 30%; pest or weed control at 125 g/ha [15]: 90%; pest or weed control at 31 g/ha [16]: 70%; pest or weed control at 125 g/ha [16]: 100%; pest or weed control at 250 g/ha [17]: 100%; pest or weed control at 31 g/ha [18]: 20%; pest or weed control at 125 g/ha [18]: 70%
"O=C1COC(CCCC(F)(F)F)c2c(Oc3ncc(Cl)cn3)cccc21 (stereo not drawn) [Compound 5, 8-[(5-Chloro-2-pyrimidinyl)oxy]-1-(4,4,4-trifluorobutyl)-1H-2-benzopyran-4(3H)-one]",0%,10%,0%,0%,40%,0%,10%,0%,0%,0%,90%,0%,0%,10%,90%,10%,10%,0%,30%,0%,pest or weed control at 125 g/ha [11]: 10%; pest or weed control at 31 g/ha [12]: 0%; pest or weed control at 125 g/ha [12]: 0%; pest or weed control at 250 g/ha [13]: 0%; pest or weed control at 31 g/ha [14]: 0%; pest or weed control at 125 g/ha [14]: 10%; pest or weed control at 31 g/ha [15]: 10%; pest or weed control at 125 g/ha [15]: 10%; pest or weed control at 31 g/ha [16]: 0%; pest or weed control at 125 g/ha [16]: 0%; pest or weed control at 250 g/ha [17]: 60%; pest or weed control at 31 g/ha [18]: 0%; pest or weed control at 125 g/ha [18]: 0%

# From US11427549B2, “Pyrimidinyloxy benzo-fused compounds as herbicides” (FMC Corporation, priority 2017, dated 2022)
